# According to US11426402B2, “IRE1 activating compounds for use in therapy” (The Scripps Research Institute, priority 2019, dated 2022):
# Legend:
# APP = APP immunoblots of lysates and conditioned media of CHO 7PA2 cells; type: cell-based; conditions: CHO 7PA2, 10 μM
# Protocol: FIGS. 5A-5D. […] Cells were treated for 18 hours, media was then replaced and conditioned in the presence of treatments for 24 hours before harvesting for ELISA assay. Error bars represent SEM for n=3 replicates. Statistics calculated from one-tailed Student's t-test. *p<0.05, **p<0.01, ***p<0.001 (FIG. 5A). Quantification of media and lysate immunoblots from 474 treatment (10 μM) of APP. Error bars represent Standard Deviation for n=3 replicates. Statistics calculated from one-tailed Student's t-test. *p<0.05, **p<0.01 ***p<0.001 (FIG. 5B). Plot showing fraction of total remaining APP at each time point after S35 metabolic labeling of newly synthesized protein, accounting for the sum of APP in lysate and media. Error bars represent Standard Deviation for n=3 replicates. Statistics calculated from one-tailed Student's t-test. *p<0.05, **p<0.01, ***p<0.001 (FIG. 5C). Plot showing fraction of secreted APP collected at 2 hours after metabolic labeling. Error bars represent Standard Deviation for n=3 replicates. Statistics calculated from one-tailed Student's t-test. *p<0.05, **p<0.01, ***p<0.001 (FIG. 5D). […]
# [1] = Toxicity, body weight and food intake in DIO mice; type: in vivo
# Protocol: (§1) FIGS. 7A-7D. RT-PCR of Xbp1s and the IRE1/XBP1s target gene Erdj4 from adipose tissue post single IP dose of 474 (FIG. 7A). Liver RNAseq profiles of ATF6, IRE1 and PERK target genes expressed as log 2 fold change of chronic 474 treatment compared to vehicle (FIG. 7B). Body weight (FIG. 7C) and food intake (FIG. 70) over 6 weeks of dosing.
# (§2) To test the efficacy of pharmacologic IRE1 activation in mitigating T2D, we chronically administered 474 by once-daily IP injections at 50 mg/kg for a period of 6 weeks to Diet-Induced Obese (DIO) mice, a model of T2D.
# IRE1 target genes = test: Liver RNA sequencing of DIO mice, IRE1 targets; type: in vivo, mouse; conditions: once-daily IP 50 mg/kg, 6 weeks
# Protocol: as §1, §2
# [2] = system: Diet-Induced Obese (DIO) mice; test: Glucose tolerance, serum glucose and insulin in DIO mice; type: in vivo, mouse; conditions: 4 weeks of dosing
# Text: FIGS. 8A-8E. Oral glucose tolerance test in DIO mice treated with either Vehicle or 474 for 3 weeks (n=8) (FIG. 8A). Serum glucose and insulin levels post 4 weeks of dosing with 474 or vehicle (FIG. 8B). Glucose stimulated insulin secretion in islets isolated from 474 or vehicle treated mice. (FIG. 8C). Hepatic triglyceride content (FIG. 8D) and gene expression profiles of gluconeogenic genes (FIG. 8E) at 6 weeks post dosing.
# as §2
# This effect can be rationalized, at least in part, by enhanced pancreatic f-cell function in 474-treated […], as shown by our studies in isolated pancreatic islets from vehicle- and 474-treated mice. […] Given the well-documented link between IRE1 and hepatic metabolism in T2D^55, we also examined markers of liver function after 474 treatment. We found reduced liver triglyceride accumulation in 474-treated mice relative to controls (FIG. 80).
structure (smiles),measurement,setting,value
Cc1ccc(OCCN(C)C(=O)Cn2cc(NC(=O)CCOc3ccccc3)cn2)cc1 [Compound 474],APP levels in lysates and conditioned media,APP,reduced APP levels in both lysates and conditioned media
same,body weight and food intake,[1]; 6-week dosing period,remaining similar in all groups
same,toxicity,"[1]; DIO mice, once-daily IP 50 mg/kg, 6 weeks",no evident toxicity
same,Xbp1 splicing in liver,IRE1 target genes,robust Xbp1splicing
same,downstream IRE1 targets in liver,IRE1 target genes,selective activation
same,basal insulin levels,[2],more prominent decrease
same,fasting glucose,[2],significant reduction
